Test systems include CAKI-1 renal; DU-145 prostate; EKVX NSCLC; HOP-92 NSCLC; LOX IMVI melanoma; M14 melanoma; MCF7 breast; SK-MEL-28 melanoma; SNB-19 CNS; T-47D breast.
Assay in all cases: NCI anticancer screen, dose series, 48 h

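All cell lines were grown in 96-well plates and treated with compound for 48 hours. GI50 marks 50% less growth. TGI: total growth inhibition.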

Take `O=c1c2cc(F)ccc2sc2c(NCCCNCCO)nc3ccc(F)cc3c12`: the GI50 is 1.53 µM in the experiment on CAKI-1 renal; 1.76 µM with DU-145 prostate; 1.52 µM in the experiment with EKVX NSCLC; 1.31 µM in the experiment on HOP-92 NSCLC; 1.57 µM in the experiment with LOX IMVI melanoma; 1.85 µM in the experiment on M14 melanoma. Besides, the GI50 in the experiment on MCF7 breast was 1.62 µM; in the experiment on SK-MEL-28 melanoma, 1.78 µM; with SNB-19 CNS, 1.72 µM; in the experiment with T-47D breast it was 1.94 µM. For the same compound, the TGI amounted to 2.97 µM in the experiment with CAKI-1 renal; 3.19 µM in the experiment on DU-145 prostate; 3.07 µM in the experiment with EKVX NSCLC; 5.2 µM with HOP-92 NSCLC; 3.06 µM in the experiment with LOX IMVI melanoma; 3.67 µM in the experiment with M14 melanoma. Further, the TGI in the experiment with MCF7 breast was 3.2 µM; in the experiment with SK-MEL-28 melanoma, 3.25 µM; in the experiment on SNB-19 CNS it was 3.29 µM; in the experiment with T-47D breast it was 4.48 µM.
Take `CCN(CC)CCN1C(=O)c2cccc3cc(N)cc(c23)C1=O`: the TGI in the experiment on CAKI-1 renal was > 100 µM; in the experiment on DU-145 prostate, > 100 µM; in the experiment on EKVX NSCLC, 22.8 µM; with HOP-92 NSCLC it was > 100 µM; in the experiment on M14 melanoma it was 32.1 µM; in the experiment with MCF7 breast, > 100 µM. Moreover, the figures for the TGI in the experiment on SK-MEL-28 melanoma, in the experiment with SNB-19 CNS and in the experiment with T-47D breast were 36.1 µM, > 100 µM and > 100 µM, respectively.
Turning to `NC1=Nc2cc(OCCCCN3Cc4ccccc4C3)c(OCC3CC3)cc2C12CCCC2`, the GI50 in the experiment on CAKI-1 renal is 2.1 µM; in the experiment with DU-145 prostate, 3.24 µM; with EKVX NSCLC it was 2.77 µM; in the experiment with HOP-92 NSCLC, 0.873 µM; with LOX IMVI melanoma, 1.69 µM; in the experiment on M14 melanoma, 1.77 µM. The GI50 in the experiment with MCF7 breast is 1.37 µM; in the experiment on SNB-19 CNS, 3.28 µM; in the experiment with T-47D breast, 1.78 µM. The TGI in the experiment on CAKI-1 renal came out at 6.5 µM; with DU-145 prostate, 11.4 µM; in the experiment with EKVX NSCLC, 14.5 µM; in the experiment on HOP-92 NSCLC, 2.71 µM; in the experiment on LOX IMVI melanoma, 3.09 µM; in the experiment on M14 melanoma, 3.51 µM. The TGI amounted to 2.99 µM in the experiment with MCF7 breast, 12.4 µM in the experiment with SNB-19 CNS and 4.29 µM with T-47D breast.
`CC1SC(c2ccc(OCc3ccccc3)cc2)N(NC(=O)C(O)(c2ccccc2)c2ccccc2)C1=O` (configuration not stated): the GI50 is 2.49 µM in the experiment with CAKI-1 renal; 3.55 µM in the experiment on DU-145 prostate; 5.49 µM in the experiment with EKVX NSCLC; 1.14 µM in the experiment on HOP-92 NSCLC; 3.87 µM with LOX IMVI melanoma; 4.37 µM in the experiment with MCF7 breast. Further, the figures for the GI50 in the experiment on SK-MEL-28 melanoma, with SNB-19 CNS and in the experiment on T-47D breast were 4.44 µM, 5 µM and 3.52 µM, respectively. For the same compound, the TGI is 8.6 µM in the experiment on CAKI-1 renal; 13.6 µM with DU-145 prostate; 22.5 µM with EKVX NSCLC; 4.74 µM with HOP-92 NSCLC; 14.6 µM in the experiment on LOX IMVI melanoma; 22.4 µM in the experiment on MCF7 breast. Further, the figures for the TGI in the experiment on SK-MEL-28 melanoma, in the experiment on SNB-19 CNS and with T-47D breast were 16.3 µM, 21.5 µM and 14.9 µM, respectively.
`Nc1ncnc2c1ncn2C1SC(CO)C(O)C1O` (configuration not stated): the GI50 in the experiment on CAKI-1 renal was 29.5 µM; with DU-145 prostate, 6.93 µM; with HOP-92 NSCLC it was 13.6 µM; with LOX IMVI melanoma, 18.5 µM; in the experiment with M14 melanoma it was 21 µM; in the experiment on MCF7 breast, 3.21 µM. In addition, the GI50 in the experiment with SK-MEL-28 melanoma is 56.5 µM; in the experiment on SNB-19 CNS, 26 µM; in the experiment on T-47D breast, 5.24 µM. Also, the TGI in the experiment on CAKI-1 renal is > 100 µM; in the experiment with DU-145 prostate, 26.7 µM; in the experiment on HOP-92 NSCLC it was 52.4 µM; in the experiment with LOX IMVI melanoma it was 48.4 µM; in the experiment on M14 melanoma, 55.6 µM; with MCF7 breast, 31.6 µM. Moreover, the TGI was > 100 µM in the experiment with SK-MEL-28 melanoma, 82.8 µM in the experiment on SNB-19 CNS and 26 µM in the experiment with T-47D breast.
On to `CCOc1ccc(-c2nc3ccc(-c4nc5ccc(N6CCN(C)CC6)cc5[nH]4)cc3[nH]2)cc1OCC`, for which the GI50 in the experiment on CAKI-1 renal is 2.71 µM; in the experiment with DU-145 prostate it was 2.37 µM; in the experiment with EKVX NSCLC, 5.06 µM; in the experiment with HOP-92 NSCLC it was 1.35 µM; in the experiment with M14 melanoma it was 0.831 µM; with MCF7 breast, 0.498 µM. In addition, the GI50 was 0.701 µM in the experiment with SK-MEL-28 melanoma, 2 µM in the experiment on SNB-19 CNS and 0.946 µM in the experiment with T-47D breast. Moreover, the TGI in the experiment on CAKI-1 renal is 17.6 µM; in the experiment on DU-145 prostate, 8.1 µM; in the experiment with EKVX NSCLC it was > 100 µM; in the experiment with HOP-92 NSCLC it was 8.73 µM; in the experiment with M14 melanoma it was 3.84 µM; in the experiment with MCF7 breast, 3.05 µM. Besides, the TGI with SK-MEL-28 melanoma amounted to 2.18 µM; in the experiment with SNB-19 CNS it was 11.1 µM; in the experiment with T-47D breast it was 5.57 µM.
In the case of `COc1cc2nc(NC3CCC3)nc(NC3CCN(C(C)C)CC3)c2cc1OC`, the GI50 was 1.59 µM in the experiment on CAKI-1 renal; 4.04 µM in the experiment on DU-145 prostate; 4.65 µM with EKVX NSCLC; 1.46 µM in the experiment with HOP-92 NSCLC; 1.72 µM in the experiment on LOX IMVI melanoma; 1.88 µM with M14 melanoma. Moreover, the GI50 with MCF7 breast was 2.96 µM; in the experiment on SK-MEL-28 melanoma, 1.94 µM; in the experiment with T-47D breast it was 1.95 µM. For the same compound, the TGI with CAKI-1 renal worked out at 3.17 µM; with DU-145 prostate it was 14.9 µM; in the experiment on EKVX NSCLC, 23.4 µM; with HOP-92 NSCLC, 3.64 µM; in the experiment on LOX IMVI melanoma, 3.23 µM; in the experiment with M14 melanoma, 3.46 µM. Besides, the TGI is 13 µM in the experiment with MCF7 breast, 3.66 µM in the experiment on SK-MEL-28 melanoma and 4.11 µM in the experiment on T-47D breast.
`CC(=O)Nc1ccc(S(=O)(=O)N2C(=O)CCC2C(=O)Nc2ccccc2)cc1` (configuration not stated): the GI50 in the experiment with CAKI-1 renal was 0.46 µM; in the experiment on DU-145 prostate, 3.46 µM; in the experiment with HOP-92 NSCLC, 1.48 µM; with LOX IMVI melanoma it was 0.0482 µM; in the experiment on M14 melanoma it was 0.265 µM; in the experiment with MCF7 breast it was 0.73 µM. Besides, the GI50 in the experiment on SK-MEL-28 melanoma was 1.79 µM; in the experiment on SNB-19 CNS it was 1.74 µM; in the experiment on T-47D breast, 0.283 µM. For the same compound, the TGI in the experiment on CAKI-1 renal amounted to 17.5 µM; in the experiment on DU-145 prostate, 19.2 µM; with HOP-92 NSCLC, 5.41 µM; in the experiment with LOX IMVI melanoma, 13.2 µM; with M14 melanoma, 12.5 µM; in the experiment with MCF7 breast, 14.7 µM. The TGI in the experiment on SK-MEL-28 melanoma worked out at 18.1 µM; in the experiment with SNB-19 CNS, 19.2 µM; in the experiment with T-47D breast it was 14.6 µM.

Source of the values: PubChem BioAssay (NCI).
